# Reference: ChEMBL document CHEMBL1201862, “PubChem BioAssay data set” (2004)
#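 Grown in 96-well plates, cells were treated for 48 hours with each compound at five concentrations. Insufficient inhibition: endpoint recorded as highest concentration tested. GI50 = concentration required for 50% inhibition of growth.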 Active and inactive are the calls of the source. Rule as the data show it: active = GI50 up to about 1.1 µM and inactive = higher.
# What was measured:
# Test in all cases: DTP human tumour cell line panel, 48 h
# NCI-H226 = test system: NCI-H226
# HCT-15 = test system: HCT-15
# 786-0 = test system: 786-0
# K562 = test system: K562
# SK-MEL-28 = test system: SK-MEL-28
# M19-MEL = test system: M19-MEL
# IGROV-1 = test system: IGROV-1
# LOX IMVI = test system: LOX IMVI
# M14 = test system: M14
# SN12C = test system: SN12C
# HT-29 = test system: HT-29
# RPMI-8226 = test system: RPMI-8226
# LXFL 529 = test system: LXFL 529
# CAKI-1 = test system: CAKI-1
# MOLT-4 = test system: MOLT-4
# SK-MEL-5 = test system: SK-MEL-5
# UACC-62 = test system: UACC-62
# KM-20L2 = test system: KM-20L2
# Malme-3M = test system: Malme-3M
# SNB-78 = test system: SNB-78
# SNB-75 = test system: SNB-75
# SW-620 = test system: SW-620
# UACC-257 = test system: UACC-257
# SK-MEL-2 = test system: SK-MEL-2
# SF-295 = test system: SF-295
# ACHN = test system: ACHN
# OVCAR-4 = test system: OVCAR-4
# SK-OV-3 = test system: SK-OV-3
# TK-10 = test system: TK-10
# U-251 = test system: U-251
# HOP-92 = test system: HOP-92
# NCI-H23 = test system: NCI-H23
# HCT-116 = test system: HCT-116
# RXF 393 = test system: RXF 393
# NCI-H460 = test system: NCI-H460
# A498 = test system: A498
# DMS-114 = test system: DMS-114
# NCI-H522 = test system: NCI-H522
# DMS-273 = test system: DMS-273
# COLO 205 = test system: COLO 205
# OVCAR-5 = test system: OVCAR-5
# EKVX = test system: EKVX
# OVCAR-3 = test system: OVCAR-3
# SNB-19 = test system: SNB-19
# KM12 = test system: KM12
# SF-268 = test system: SF-268
# HOP-18 = test system: HOP-18
# OVCAR-8 = test system: OVCAR-8
# UO-31 = test system: UO-31
# CCRF-CEM = test system: CCRF-CEM
# HOP-62 = test system: HOP-62
# XF498 = test system: XF498
# SF-539 = test system: SF-539
# A549 = test system: A549
# SR = test system: SR
# HL-60 = test system: HL-60
# HCC 2998 = test system: HCC 2998
# MDA-MB-435 = test system: MDA-MB-435
# MCF7 = test system: MCF7
# DU-145 = test system: DU-145
# T47D = test system: T47D
# BT-549 = test system: BT-549
# Hs-578T = test system: Hs-578T
# MDA-MB-231 = test system: MDA-MB-231
# MDA-N = test system: MDA-N
# PC-3 = test system: PC-3
# DLD-1 = test system: DLD-1
# NCI/ADR-RES = test system: NCI/ADR-RES
compound,measurement,setting,value
CC(=O)O[C@H]1CCC2[C@@H]3CCC4=C(O)c5nocc5C[C@]4(C)C3CC[C@@]21C (some centres not stated),GI50,NCI-H226,> 100 µM (inactive)
same,GI50,HCT-15,> 100 µM
same,GI50,786-0,> 100 µM (inactive)
same,GI50,K562,> 100 µM (inactive)
same,GI50,SK-MEL-28,> 100 µM (inactive)
same,GI50,M19-MEL,> 100 µM (inactive)
same,GI50,IGROV-1,> 100 µM (inactive)
same,GI50,LOX IMVI,> 100 µM (inactive)
same,GI50,M14,> 100 µM (inactive)
same,GI50,SN12C,> 100 µM (inactive)
same,GI50,HT-29,> 100 µM (inactive)
same,GI50,RPMI-8226,> 100 µM (inactive)
same,GI50,LXFL 529,> 100 µM (inactive)
same,GI50,CAKI-1,> 100 µM (inactive)
same,GI50,MOLT-4,> 100 µM (inactive)
same,GI50,SK-MEL-5,> 100 µM (inactive)
same,GI50,UACC-62,> 100 µM (inactive)
same,GI50,KM-20L2,> 100 µM (inactive)
same,GI50,Malme-3M,> 100 µM (inactive)
same,GI50,SNB-78,> 100 µM (inactive)
same,GI50,SNB-75,> 100 µM (inactive)
same,GI50,SW-620,> 100 µM (inactive)
same,GI50,UACC-257,> 100 µM (inactive)
same,GI50,SK-MEL-2,> 100 µM (inactive)
same,GI50,SF-295,> 100 µM (inactive)
same,GI50,ACHN,> 100 µM (inactive)
same,GI50,OVCAR-4,> 100 µM (inactive)
same,GI50,SK-OV-3,> 100 µM (inactive)
same,GI50,TK-10,> 100 µM (inactive)
same,GI50,U-251,> 100 µM (inactive)
same,GI50,HOP-92,> 100 µM (inactive)
same,GI50,NCI-H23,> 100 µM (inactive)
same,GI50,HCT-116,> 100 µM (inactive)
same,GI50,RXF 393,> 100 µM (inactive)
same,GI50,NCI-H460,> 100 µM (inactive)
same,GI50,A498,> 100 µM (inactive)
same,GI50,DMS-114,> 100 µM (inactive)
same,GI50,NCI-H522,> 100 µM (inactive)
same,GI50,DMS-273,> 100 µM (inactive)
same,GI50,COLO 205,> 100 µM (inactive)
same,GI50,OVCAR-5,> 100 µM (inactive)
same,GI50,EKVX,> 100 µM (inactive)
same,GI50,OVCAR-3,> 100 µM (inactive)
same,GI50,SNB-19,> 100 µM (inactive)
same,GI50,KM12,> 100 µM (inactive)
same,GI50,SF-268,> 100 µM (inactive)
same,GI50,HOP-18,> 100 µM (inactive)
same,GI50,OVCAR-8,> 100 µM (inactive)
same,GI50,UO-31,> 100 µM (inactive)
same,GI50,CCRF-CEM,> 100 µM (inactive)
same,GI50,HOP-62,> 100 µM (inactive)
same,GI50,XF498,> 100 µM (inactive)
same,GI50,SF-539,> 100 µM (inactive)
same,GI50,A549,> 100 µM (inactive)
COc1ccc2c(c1)CCN1C3=C(CCC3)C(=O)C[C@@H]21,GI50,NCI-H226,> 100 µM (inactive)
same,GI50,HCT-15,> 100 µM
same,GI50,786-0,> 100 µM (inactive)
same,GI50,K562,> 100 µM (inactive)
same,GI50,SK-MEL-28,> 100 µM (inactive)
same,GI50,M19-MEL,> 100 µM (inactive)
same,GI50,IGROV-1,> 100 µM (inactive)
same,GI50,LOX IMVI,> 100 µM (inactive)
same,GI50,M14,> 100 µM (inactive)
same,GI50,SN12C,> 100 µM (inactive)
same,GI50,HT-29,> 100 µM (inactive)
same,GI50,RPMI-8226,> 100 µM (inactive)
same,GI50,LXFL 529,> 100 µM (inactive)
same,GI50,CAKI-1,> 100 µM (inactive)
same,GI50,MOLT-4,> 100 µM (inactive)
same,GI50,SR,31.1 µM (inactive)
same,GI50,SK-MEL-5,> 100 µM (inactive)
same,GI50,UACC-62,> 100 µM (inactive)
same,GI50,KM-20L2,> 100 µM (inactive)
same,GI50,Malme-3M,> 100 µM (inactive)
same,GI50,SNB-78,> 100 µM (inactive)
same,GI50,SNB-75,44.9 µM (inactive)
same,GI50,SW-620,> 100 µM (inactive)
same,GI50,UACC-257,> 100 µM (inactive)
same,GI50,SK-MEL-2,> 100 µM (inactive)
same,GI50,SF-295,> 100 µM (inactive)
same,GI50,ACHN,> 100 µM (inactive)
same,GI50,OVCAR-4,> 100 µM (inactive)
same,GI50,SK-OV-3,> 100 µM (inactive)
same,GI50,TK-10,44.7 µM (inactive)
same,GI50,U-251,> 100 µM (inactive)
same,GI50,HOP-92,> 100 µM (inactive)
same,GI50,NCI-H23,> 100 µM (inactive)
same,GI50,HCT-116,> 100 µM (inactive)
same,GI50,RXF 393,> 100 µM (inactive)
same,GI50,NCI-H460,> 100 µM (inactive)
same,GI50,A498,62.2 µM (inactive)
same,GI50,DMS-114,81.7 µM (inactive)
same,GI50,NCI-H522,> 100 µM (inactive)
same,GI50,DMS-273,> 100 µM (inactive)
same,GI50,COLO 205,> 100 µM (inactive)
same,GI50,OVCAR-5,89.9 µM (inactive)
same,GI50,EKVX,> 100 µM (inactive)
same,GI50,OVCAR-3,> 100 µM (inactive)
same,GI50,SNB-19,> 100 µM (inactive)
same,GI50,KM12,> 100 µM (inactive)
same,GI50,SF-268,> 100 µM (inactive)
same,GI50,HOP-18,> 100 µM (inactive)
same,GI50,OVCAR-8,> 100 µM (inactive)
same,GI50,UO-31,43.6 µM (inactive)
same,GI50,HL-60,23.2 µM (inactive)
same,GI50,HCC 2998,> 100 µM (inactive)
same,GI50,CCRF-CEM,> 100 µM (inactive)
same,GI50,HOP-62,> 100 µM (inactive)
same,GI50,XF498,15.9 µM (inactive)
same,GI50,SF-539,> 100 µM (inactive)
same,GI50,A549,> 100 µM (inactive)
CC1=C2C(=CO[C@H](C)[C@H]2C)C(O)=C(C(=O)O)C1=O [CITRININ],GI50,NCI-H226,23.3 µM (inactive)
same,GI50,HCT-15,16.9 µM
same,GI50,786-0,24.5 µM (inactive)
same,GI50,K562,15.3 µM (inactive)
same,GI50,MDA-MB-435,27 µM (inactive)
same,GI50,MCF7,15.7 µM (inactive)
same,GI50,SK-MEL-28,31.8 µM (inactive)
same,GI50,DU-145,24.2 µM (inactive)
same,GI50,M19-MEL,24.5 µM (inactive)
same,GI50,IGROV-1,18.6 µM (inactive)
same,GI50,LOX IMVI,16.3 µM (inactive)
same,GI50,M14,23 µM (inactive)
same,GI50,SN12C,21.7 µM (inactive)
same,GI50,HT-29,33.9 µM (inactive)
same,GI50,RPMI-8226,15.8 µM (inactive)
same,GI50,CAKI-1,27.3 µM (inactive)
same,GI50,MOLT-4,13.1 µM (inactive)
same,GI50,SR,15.6 µM (inactive)
same,GI50,SK-MEL-5,12.8 µM (inactive)
same,GI50,UACC-62,20.3 µM (inactive)
same,GI50,KM-20L2,23.8 µM (inactive)
same,GI50,Malme-3M,50.1 µM (inactive)
same,GI50,T47D,29.2 µM (inactive)
same,GI50,BT-549,13.3 µM (inactive)
same,GI50,SNB-78,11.2 µM (inactive)
same,GI50,Hs-578T,27.5 µM (inactive)
same,GI50,SNB-75,32.6 µM (inactive)
same,GI50,SW-620,20.6 µM (inactive)
same,GI50,UACC-257,29.7 µM (inactive)
same,GI50,MDA-MB-231,23.2 µM (inactive)
same,GI50,SK-MEL-2,16.3 µM (inactive)
same,GI50,SF-295,35.8 µM (inactive)
same,GI50,ACHN,21 µM (inactive)
same,GI50,OVCAR-4,32.9 µM (inactive)
same,GI50,SK-OV-3,71.8 µM (inactive)
same,GI50,TK-10,24.5 µM (inactive)
same,GI50,U-251,14.6 µM (inactive)
same,GI50,HOP-92,25.1 µM (inactive)
same,GI50,NCI-H23,20.5 µM (inactive)
same,GI50,MDA-N,26.2 µM (inactive)
same,GI50,HCT-116,25.8 µM (inactive)
same,GI50,RXF 393,13.2 µM (inactive)
same,GI50,A498,0.782 µM (active)
same,GI50,DMS-114,11.5 µM (inactive)
same,GI50,PC-3,32 µM (inactive)
same,GI50,DLD-1,18.2 µM (inactive)
same,GI50,NCI-H522,12.4 µM (inactive)
same,GI50,DMS-273,44 µM (inactive)
same,GI50,COLO 205,33.9 µM (inactive)
same,GI50,OVCAR-5,59.8 µM (inactive)
same,GI50,EKVX,18.7 µM (inactive)
same,GI50,OVCAR-3,16.7 µM (inactive)
same,GI50,NCI/ADR-RES,43.8 µM (inactive)
same,GI50,SNB-19,21.9 µM (inactive)
same,GI50,KM12,26.9 µM (inactive)
same,GI50,SF-268,7 µM (inactive)
same,GI50,HOP-18,15.2 µM (inactive)
same,GI50,OVCAR-8,13.2 µM (inactive)
same,GI50,UO-31,48.3 µM (inactive)
same,GI50,HL-60,11.1 µM (inactive)
same,GI50,HCC 2998,19.1 µM (inactive)
same,GI50,CCRF-CEM,14.8 µM (inactive)
same,GI50,HOP-62,17.1 µM (inactive)
same,GI50,XF498,5.55 µM (inactive)
same,GI50,SF-539,12.3 µM (inactive)
same,GI50,A549,70.5 µM (inactive)
